# Laboratory results as given in US10766899B2, “Methods for preparing substituted imidazo[4,5-b]pyrazines” (Cytokinetics, Inc., priority 2006, dated 2020).
# Several values for one entry are separate records, joined by “and”; a condition that tells them apart may be missing. Equal entries are not always repeated.
# System: SKM MF
# Test: SKM MF AC1.4: ATPase of skeletal sarcomeric proteins (actin, tropomyosin, troponin complex, myosin), PK/LDH coupled enzyme system
# Assay type: biochemical
# Settings: screen at pCa=6.5; † mean value, ‡ median value
# Procedure: For example, test compounds can be assayed in a highly parallel fashion by using multiwell plates by placing the compounds either individually in wells or testing them in mixtures. Assay components including the target protein complex, coupling enzymes and substrates, and ATP can then be added to the wells and the absorbance or fluorescence of each well of the plate can be measured with a plate reader.
# In some embodiments, the method uses a 384 well plate format and a 25 μL reaction volume. A pyruvate kinase/lactate dehydrogenase coupled enzyme system (Huang T G and Hackney D D. (1994) J Biol Chem 269(23):16493-501) can be used to measure the rate of ATP hydrolysis in each well. As will be appreciated by those in the art, the assay components are added in buffers and reagents. The incubation periods can be optimized to give adequate detection signals over the background. The assay can be done in real time giving the kinetics of ATP hydrolysis which increases the signal to noise ratio of the assay.
# Actin was purified by first preparing an ether powder of cardiac muscle (Zot H G and Potter J D. (1981) Preparative Biochemistry 11:381-395) as described below. Subsequently, actin was cycled between the filamentous and soluble state through rounds of centrifugation and dialysis (Spudich J A and Watt S. (1971) J. Biol. Chem. 246:4866-4871). It was stored in the filamentous state at 4° C.
# Tropomyosin was extracted from the ether powder and separated from the other proteins based on pH dependent precipitations followed by successive ammonium sulfate cuts at 53% and 65% (Smillie L B. (1981) Methods Enzymol 85 Pt B:234-41). The troponins were isolated as an intact complex of TnC, TnT, and TnI. Ether powder is extracted in a high salt buffer. Successive ammonium sulfate cuts of 30% and 45% were done; the precipitate was solubilized by dialysis into a low salt buffer and then further purified on a DEAE Toyopearl column with a 25-350 mM KCl gradient.
# Just prior to screening, the actin, tropomyosin, and troponin complex are mixed together in the desired ratio (e.g., 7:1:1) to achieve maximal calcium regulation of the actin filament. The screen is conducted at a pCa=6.5. This calcium concentration is in the physiological range during muscle contraction.
# To measure the generation of ADP during the reaction, a pyruvate kinase/lactate dehydrogenase/NADH coupled enzyme system (PK/LDH) is added to the actin. The myosin is kept separately. The plates are read in real time so that kinetic curves are obtained. These compounds are in DMSO and were already spotted onto the bottoms of 384 well plates at 10 to 40 μg/ml final concentration.
# • 1. Obtain ˜1000 g skeletal muscle, such as rabbit skeletal muscle. • 2. Grind twice; extract with 2 L solution A for 15 min while stirring; add 4 L cold H2O, filter through gauze; dilute with cold H2O to ionic strength of 0.04, (about 10-fold); let settle for 3 h; collect precipitate at 7,000 rpm in GSA rotor for 15 min. • 3. Disperse pellet in 220 ml solution B; dialyze overnight against 6 L solution C; slowly add ˜400 ml equal volume cold distilled H2O; stir for 30 min; centrifuge at 10,000 rpm for 10 min in GSA rotor. • 4. Centrifuge supernatant at 19,000 rpm for 1 h. • 5. Dilute supernatant to ionic strength of 0.04 (˜8-fold); let myosin settle overnight; collect about 5-6 L fluffy myosin precipitate by centrifuging at 10,000 rpm for 10 min in GSA rotor. • 6. Resuspend pellet in minimal volume of solution G; dialyze overnight against 2 L solution D; centrifuge at 19,000 rpm for 2 h, in cellulose nitrate tubes; puncture tubes and separate myosin from fat and insoluble pellet. • 7. Dilute supernatant to 5-10 mg/ml and dialyze against solution E extensively, load onto DEAE-sephadex column. • 8. […]
row,Molecule,SKM MF AC1.4
1,"C/C=C/c1cnc2nc(O)n(C(CC)CC)c2n1 [(E)-1-(pentan-3-yl)-6-(prop-1-enyl)-1H-imidazo[4,5-b]pyrazin-2-ol]",0.4 µM
2,"CC(C)C[C@H](CN1CCOCC1)n1c(O)nc2ncc(Br)nc21 [1-[(1R)-3-methyl-1-(morpholin-4-ylmethyl)butyl]-6-bromoimidazo[4,5-b]pyrazin-2-ol]",0.5 µM
3,"CCC(C(=O)O)n1c(O)nc2ncc(Br)nc21 (stereo not shown) [2-(6-bromo-2-hydroxy-1H-imidazo[4,5-b]pyrazin-1-yl)butanoic acid]",>49 µM
4,"C#Cc1cnc2nc(O)n([C@H](CC)CN3CCOCC3)c2n1 [1-[(1R)-1-(morpholin-4-ylmethyl)propyl]-6-ethynylimidazo[4,5-b]pyrazin-2-ol]",0.13 µM
5,"CCC(C(=O)N1CCOCC1)n1c(O)nc2ncc(Br)nc21 (stereo not shown) [2-(6-bromo-2-hydroxy-1H-imidazo[4,5-b]pyrazin-1-yl)-1-morpholinobutan-1-one]",>49 µM
6,"CCC(CC)n1c(O)nc2ncc(N(C)C)nc21 [6-(dimethylamino)-1-(pentan-3-yl)-1H-imidazo[4,5-b]pyrazin-2-ol]",2.2 µM and 2.79 µM
7,"6-bromo-1-(propylbutyl)imidazo[4,5-b]pyrazin-2-ol",0.7 µM
8,"1-(ethylpropyl)-6-(1-methylvinyl)imidazo[4,5-b]pyrazin-2-ol",0.6 µM
9,"CSc1cnc2nc(O)n(Cc3ccccc3)c2n1 [1-benzyl-6-(methylthio)-1H-imidazo[4,5-b]pyrazin-2-ol]",22.6 µM
10,"CC#Cc1cnc2nc(O)n(C(CC)CC)c2n1 [1-(pentan-3-yl)-6-(prop-1-ynyl)-1H-imidazo[4,5-b]pyrazin-2-ol]",>49 µM
11,"1-(ethylpropyl)-6-(methylethyl)imidazo[4,5-b]pyrazin-2-ol",29.6 µM
12,"CSc1cnc2nc(O)n(C(C)C)c2n1 [1-isopropyl-6-(methylthio)-1H-imidazo[4,5-b]pyrazin-2-ol]",6.7 µM
13,"CCC(CC)n1c(O)nc2ncc(C(F)(F)F)nc21 [1-(pentan-3-yl)-6-(trifluoromethyl)-1H-imidazo[4,5-b]pyrazin-2-ol]",10.4^‡ μM
14,"1-(ethylpropyl)-6-(1-methylpyrazol-4-yl)imidazo[4,5-b]pyrazin-2-ol",15 µM
15,"CCC(CN1CCOCC1)n1c(O)nc2nccnc21 (stereo not shown) [1-(1-morpholinobutan-2-yl)-1H-imidazo[4,5-b]pyrazin-2-ol]",>49 µM
16,"1-(ethylpropyl)-6-{2-[1-(ethylpropyl)-2-hydroxyimidazo[4,5-e]pyrazin-6-yl]ethynyl}imidazo[4,5-b]pyrazin-2-ol",19.32 µM

# Now from value to molecule:
row,SKM MF AC1.4,Molecule
1,5.2^‡ μM,"C[C@H](CN1CCOCC1)n1c(O)nc2ncc(Br)nc21 [(R)-6-bromo-1-(1-morpholinopropan-2-yl)-1H-imidazo[4,5-b]pyrazin-2-ol]"
2,2.2^‡ μM,"CCC(CC)n1c(O)nc2ncc(OC)nc21 [6-methoxy-1-(pentan-3-yl)-1H-imidazo[4,5-b]pyrazin-2-ol]"
3,0.6 µM,"C/C=C\c1cnc2nc(O)n(C(CC)CC)c2n1 [(Z)-1-(pentan-3-yl)-6-(prop-1-enyl)-1H-imidazo[4,5-b]pyrazin-2-ol]"
4,6.1 µM,"C/C=C/c1cnc2nc(O)n(C3CCCCC3)c2n1 [(E)-1-cyclohexyl-6-(prop-1-enyl)-1H-imidazo[4,5-b]pyrazin-2-ol]"
5,0.3 µM,"CC[C@H](CN1CCOCC1)n1c(O)nc2ncc(Br)nc21 [(R)-6-bromo-1-(1-morpholinobutan-2-yl)-1H-imidazo[4,5-b]pyrazin-2-ol]"
6,4.6 µM,"C/C=C\c1cnc2nc(O)n(C(C)C)c2n1 [(Z)-1-isopropyl-6-(prop-1-enyl)-1H-imidazo[4,5-b]pyrazin-2-ol]"
7,0.9^† μM,"CCC(CN1CCN(C(=O)OC)CC1)n1c(O)nc2ncc(Br)nc21 (stereo not shown) [methyl 4-(2-(6-bromo-2-hydroxy-1H-imidazo[4,5-b]pyrazin-1-yl)butyl)piperazine-1-carboxylate]"
8,0.4 µM,"CCC(CC)n1c(O)nc2ncc(SC)nc21 [6-(methylthio)-1-(pentan-3-yl)-1H-imidazo[4,5-b]pyrazin-2-ol]"
9,0.25 µM,"CCC(CC)n1c(O)nc2ncc(Br)nc21 [6-bromo-1-(pentan-3-yl)-1H-imidazo[4,5-b]pyrazin-2-ol]"
10,6.0 µM,"CC(C)n1c(O)nc2ncc(Br)nc21 [6-bromo-1-isopropyl-1H-imidazo[4,5-b]pyrazin-2-ol]"
11,2.4 µM,"C=Cc1cnc2nc(O)n([C@@H](C)c3ccccc3)c2n1 [(S)-1-(1-phenylethyl)-6-vinyl-1H-imidazo[4,5-b]pyrazin-2-ol]"
12,0.45 µM,"C[C@@H](c1ccccc1)n1c(O)nc2ncc(Br)nc21 [(S)-6-bromo-1-(1-phenylethyl)-1H-imidazo[4,5-b]pyrazin-2-ol]"
13,11.5 µM,"CCC(CC)n1c(O)nc2nc(Br)cnc21 [5-bromo-1-(pentan-3-yl)-1H-imidazo[4,5-b]pyrazin-2-ol]"
14,1.1 µM,"CSc1cnc2nc(O)n([C@@H](C)c3ccccc3)c2n1 [(S)-6-(methylthio)-1-(1-phenylethyl)-1H-imidazo[4,5-b]pyrazin-2-ol]"
15,2.7 µM,"CC(C)=Cc1cnc2nc(O)n([C@@H](C)c3ccccc3)c2n1 [(S)-6-(2-methylprop-1-enyl)-1-(1-phenylethyl)-1H-imidazo[4,5-b]pyrazin-2-ol]"
16,46.64 µM,"6-(1H-1,2,3-triazol-4-yl)-1-(ethylpropyl)imidazo[4,5-b]pyrazin-2-ol"
17,29.7 µM,"CCCc1cnc2nc(O)n([C@@H](C)c3ccccc3)c2n1 [(S)-1-(1-phenylethyl)-6-propyl-1H-imidazo[4,5-b]pyrazin-2-ol]"
18,19.1 µM,"CC[C@@H](CO)n1c(O)nc2ncc(Br)nc21 [(S)-6-bromo-1-(1-hydroxybutan-2-yl)-1H-imidazo[4,5-b]pyrazin-2-ol]"
19,0.8 µM,"CC[C@H](C)n1c(O)nc2ncc(Br)nc21 [(S)-6-bromo-1-sec-butyl-1H-imidazo[4,5-b]pyrazin-2-ol]"
20,2.9 µM,"CSc1cnc2nc(O)n([C@H](C)c3ccccc3)c2n1 [(R)-6-(methylthio)-1-(1-phenylethyl)-1H-imidazo[4,5-b]pyrazin-2-ol]"
21,45.7 µM,"CCC(CNC)n1c(O)nc2ncc(Br)nc21 (stereo not shown) [6-bromo-1-(1-(methylamino)butan-2-yl)-1H-imidazo[4,5-b]pyrazin-2-ol]"
22,7.1 µM,"C/C=C/c1cnc2nc(O)n(C(C)C)c2n1 [(E)-1-isopropyl-6-(prop-1-enyl)-1H-imidazo[4,5-b]pyrazin-2-ol]"
23,6.0 µM,"C/C=C\c1cnc2nc(O)n(C3CCCCC3)c2n1 [(Z)-1-cyclohexyl-6-(prop-1-enyl)-1H-imidazo[4,5-b]pyrazin-2-ol]"
24,0.53 µM,"CCC(CC)n1c(O)nc2ncc(C)nc21 [6-methyl-1-(pentan-3-yl)-1H-imidazo[4,5-b]pyrazin-2-ol]"

# Same assay, conditions: screen at pCa=6.5; † mean value, ‡ median value; listed as 1-((1R)-1-methyl-2-morpholin-4-ylethyl)-6-bromoimidazo[4,5-b]pyrazin-2-ol
row,Molecule,SKM MF AC1.4
1,"C[C@H](CN1CCOCC1)n1c(O)nc2ncc(Br)nc21 [(R)-6-bromo-1-(1-morpholinopropan-2-yl)-1H-imidazo[4,5-b]pyrazin-2-ol]",5.19 µM

# Same assay, conditions: screen at pCa=6.5; † mean value, ‡ median value; listed as 1-(ethylpropyl)-6-(trifluoromethyl)imidazo[4,5-b]pyrazin-2-ol
row,Molecule,SKM MF AC1.4
1,"CCC(CC)n1c(O)nc2ncc(C(F)(F)F)nc21 [1-(pentan-3-yl)-6-(trifluoromethyl)-1H-imidazo[4,5-b]pyrazin-2-ol]",10.37 µM

# Same assay, conditions: screen at pCa=6.5; † mean value, ‡ median value; listed as 1-(ethylpropyl)-6-methoxyimidazo[4,5-b]pyrazin-2-ol
row,Molecule,SKM MF AC1.4
1,"CCC(CC)n1c(O)nc2ncc(OC)nc21 [6-methoxy-1-(pentan-3-yl)-1H-imidazo[4,5-b]pyrazin-2-ol]",2.20 µM

# Same assay, conditions: screen at pCa=6.5; † mean value, ‡ median value; listed as 1-(pentan-3-yl)-6-(trifluoromethyl)-1H-imidazo[4,5-b]pyrazin-2(3H)-one
row,Molecule,SKM MF AC1.4
1,"CCC(CC)n1c(O)nc2ncc(C(F)(F)F)nc21 [1-(pentan-3-yl)-6-(trifluoromethyl)-1H-imidazo[4,5-b]pyrazin-2-ol]",10.4^‡ μM

# Same assay, conditions: screen at pCa=6.5; † mean value, ‡ median value; listed as 6-methoxy-1-(pentan-3-yl)-1H-imidazo[4,5-b]pyrazin-2(3H)-one
row,Molecule,SKM MF AC1.4
1,"CCC(CC)n1c(O)nc2ncc(OC)nc21 [6-methoxy-1-(pentan-3-yl)-1H-imidazo[4,5-b]pyrazin-2-ol]",2.2^‡ μM

# Same assay, conditions: screen at pCa=6.5; † mean value, ‡ median value; listed as (R)-6-bromo-1-(1-morpholinopropan-2-yl)-1H-imidazo[4,5-b]pyrazin-2(3H)-one
row,Molecule,SKM MF AC1.4
1,"C[C@H](CN1CCOCC1)n1c(O)nc2ncc(Br)nc21 [(R)-6-bromo-1-(1-morpholinopropan-2-yl)-1H-imidazo[4,5-b]pyrazin-2-ol]",5.2^‡ μM
